In patent publication US11932633B2, “KRas G12C inhibitors” (Mirati Therapeutics, Inc., priority 2018, dated 2024):

How the values were obtained:
KRas G12C [1] = target: T1, KRas G12C (Homo sapiens, UniProt P01116, C118S/C51S/C80L/G12C); assay: KRas G12C Modification Assay (LCMS detection of covalent adduct); type: binding; conditions: 5 μM concentration for 3 hours
T1 construct: GDP-loaded K-Ras (1-169) G12C, C51S, C80L, C118S
Procedure: This Example illustrates that exemplary compounds of the present invention covalently bind to KRas G12C using a LCMS assay to detect a covalent adduct of the exemplary compound and KRAS G12C.
The protein concentration of GDP-loaded K-Ras (1-169) G12C, C51S, C80L, C118S and GTP-loaded K-Ras (1-169) G12C, C51S, C80L, C118S, Q61H was adjusted to 2 μM in K-Ras Assay Buffer (25 mM HEPES, 150 mM NaCl, 5 mM MgCl2, and 10 mM Octyl β-glucopyranoside at pH 7.5). A 10 μL aliquot of each protein solution was transferred to a 384 well microtiter plate. Initial compound stocks were generated at fifty times their desired final assay concentration in DMSO.
Exemplary compounds of formula (I) were diluted 25-fold into K-Ras Assay Buffer to a final of two times their final concentration. A 10 μL aliquot of each diluted compound solution was added to each of the protein solutions in the microtiter plate to initiate reaction. Typical final compound concentrations were 3.0, 5.0 and 25.0 μM. At each time point, the reactions were quenched with 20 μL of a 25 mM acetic acid solution. Usual assay endpoints were 15, 180 and 1440 minutes. Once all reactions were quenched, the plates were heat sealed and the samples were injected into a LC/MS system for data acquisition.
Data collection took place on an Agilent 6520 Q-TOF Accurate Mass Spectrometer. Samples were injected in their liquid phase onto a C-3 reverse phase column to remove assay buffer and prepare the samples for mass spectrometer. The proteins were eluted from the column using an acetonitrile gradient and fed directly into the mass analyzer. Initial raw data analysis took place in Agilent MassHunter software immediately post data acquisition.
Raw data analysis of the intact protein was exclusively a deconvolution of the multiple charge states of each protein in solution using a maximum entropy deconvolution provided in Mass Hunter. To minimize complexity, only the data over limited mass ranges were considered for analysis, with a minimum of one Dalton mass step intervals. The heights of all masses identified during raw data analysis were exported to be further analyzed in Spotfire® data analysis software.
Final data analysis was a multistep process in the Spotfire® data analysis software package. Briefly, each protein mass was calculated as a percent of the total signal of that sample, that percentage was normalized to the percentage of signal of the protein in the absence of reactive compounds. Those normalized signals were reported as normalized percent of control (POC). […] Key: N.D. is not determined.

KRas G12C [2] = target: T2, KRas G12C (Homo sapiens, UniProt P01116, G12C); assay: Cellular inhibition of KRas G12C measured by Phospho-ERK in NCI-11358 cells; type: cell-based; conditions: NCI-11358 cells (ATCC CRL-5807), 3 hours; read-out: Inhibition (IC50, pERK (Thr202/Tyr204) signal normalized with GAPDH)
T2 construct: NCI-11358 cells (ATCC CRL-5807) express KRas G12C; host or cells: NCI-H358
Procedure: The cellular inhibition of KRAs G12C by exemplary compounds of the present invention was determined by measuring the amount of a downstream marker of KRas activity, phosphorylated ERK (“Phospho-ERK”).
NCI-11358 cells (ATCC CRL-5807) express KRas G12C and were grown in RPMI medium supplemented with 10% fetal bovine serum, penicillin/streptomycin and 10 mM HEPES. Cells were plated in poly-D-Lysine coated 96-well plates at a concentration of 50,000 cells/well and allowed to attach for 8-12 hours. Diluted compounds were then added at a final concentration of 0.5% DMSO. After 3 hours, the medium was removed, 150 μL of 4% formaldehyde was added and the plates were incubated for 20 minutes. The plates were washed with PBS, and permeabilized using 150 μL of ice cold 100% methanol for 10 minutes. Non-specific antibody binding to the plates was blocked using 100 μL Licor Blocking Buffer (Li-Cor Biotechnology, Lincoln NE) for 1 hour at room temperature. Positive control samples and samples lacking cells were parallel processed with test samples as standards.
The amount Phospho-ERK was determined using an antibody specific for the phosphorylated form of ERK and compared to the amount of GAPDH. Primary antibodies used for detection were added as follows: Phospho-ERK (Cell Signaling cs9101) diluted 1:500 and GAPDH (Millipore MAB374) diluted 1:5000 in Licor block+0.05% Tween 20. The plates were incubated for 2 hours at room temperature. The plates were washed with PBS+0.05% Tween 20.
Secondary antibodies used to visualize primary antibodies were added as follows: Anti-rabbit-680 diluted 1:1000 and Anti-mouse-800 diluted 1:1000 in Licor Block+0.05% Tween 20 and incubated for 1 hour at room temperature. The plates were washed with PBS+0.05% Tween 20. A 100 μL aliquot of PBS was added to each well and the plates were read on a LICOR AERIUS plate reader.
The pERK (Thr202/Tyr204) signal was normalized with the GAPDH signal and percent of DMSO control values were calculated. IC50 values were generated using a 4 parameter fit of the dose response curve. Key: “A”: ≤1 μM, “B”>1 μM and N.D.=not determined.

SMILES | POC (normalized percent of control, covalent modification of KRas G12C) (KRas G12C [1]) | IC50 (KRas G12C [2]) | POC (normalized percent of control, covalent modification of KRas G12C) (KRas G12C [1]; 5 µM)
C=CC(=O)N1CC(CN2C(=O)COc3cc(-c4cc(O)ccc4OC(F)(F)F)c(Cl)cc32)C1 [Example 7, 4-((1-acryloylazetidin-3-yl)methyl)-6-chloro-7-(5-hydroxy-2-(trifluoromethoxy)phenyl)-2H-benzo[b][1,4]oxazin-3(4H)-one] | 96% of control | > 1000 nM | 
C=CC(=O)N1CC(CN2C(=O)C(CN3CCN(C)CC3)Oc3cc(-c4cc(O)cc5ccccc45)c(Cl)cc32)C1 (stereo not shown) [Example 8, 4-((1-acryloylazetidin-3-yl)methyl)-6-chloro-7-(3-hydroxynaphthalen-1-yl)-2-((4-methylpiperazin-1-yl)methyl)-2H-benzo[b][1,4]oxazin-3(4H)-one bis(2,2,2-trifluoroacetate)] | 87% of control | ≤ 1000 nM | 
C=CC(=O)N1CC(CN2C(=O)C(CN3CCCC3)Oc3cc(-c4cc(O)cc5ccccc45)c(Cl)cc32)C1 (stereo not shown) [Example 4, 4-((1-acryloylazetidin-3-yl)methyl)-6-chloro-7-(3-hydroxynaphthalen-1-yl)-2-(pyrrolidin-1-ylmethyl)-2H-benzo[b][1,4]oxazin-3(4H)-one] | 104% of control | ≤ 1000 nM | 
C=CC(=O)N1CC(F)(CN2C(=O)COc3cc(-c4cc(O)cc5ccccc45)c(Cl)cc32)C1 [Example 13, 4-((1-acryloyl-3-fluoroazetidin-3-yl)methyl)-6-chloro-7-(3-hydroxynaphthalen-1-yl)-2H-benzo[b][1,4]oxazin-3(4H)-one] | 93% of control | ≤ 1000 nM | 
C=CC(=O)N1CC(C)(CN2C(=O)COc3cc(-c4cc(O)cc5ccccc45)c(Cl)cc32)C1 [Example 17, 4-((1-acryloyl-3-methylazetidin-3-yl)methyl)-6-chloro-7-(3-hydroxynaphthalen-1-yl)-2H-benzo[b][1,4]oxazin-3(4H)-one] | 85% of control | > 1000 nM | 
C=CC(=O)N1CC(CN2C(=O)C(CN3CCC(N(C)C)CC3)Oc3cc(-c4cc(O)cc5ccccc45)c(Cl)cc32)C1 (stereo not shown) [Example 5, 4-((1-acryloylazetidin-3-yl)methyl)-6-chloro-2-((4-(dimethylamino)piperidin-1-yl)methyl)-7-(3-hydroxynaphthalen-1-yl)-2H-benzo[b][1,4]oxazin-3(4H)-one] | 95% of control | ≤ 1000 nM | 
C=CC(=O)N1CC(CN2C(=O)COc3cc(-c4c(C)ccc5[nH]ncc45)c(Cl)cc32)C1 (single isomer, unassigned) [Example 11] |  | > 1000 nM | 96% of control
C=CC(=O)N1CC(CN2C(=O)COc3c2ccc(-c2cc(O)cc4ccccc24)c3F)C1 [Example 6, 4-((1-acryloylazetidin-3-yl)methyl)-8-fluoro-7-(3-hydroxynaphthalen-1-yl)-2H-benzo[b][1,4]oxazin-3(4H)-one] | 86% of control | > 1000 nM | 

The remaining lines, values ahead:

POC (normalized percent of control, covalent modification of KRas G12C) (KRas G12C [1]) | IC50 (KRas G12C [2]) | POC (normalized percent of control, covalent modification of KRas G12C) (KRas G12C [1]; 5 µM) | SMILES
81% of control | > 1000 nM |  | C=CC(=O)N1CC(CN2C(=O)COc3cc(-c4cc(O)cc5ccccc45)c(C#N)cc32)C1 [Example 32, 4-((1-acryloylazetidin-3-yl)methyl)-7-(3-hydroxynaphthalen-1-yl)-3-oxo-3,4-dihydro-2H-benzo[b][1,4]oxazine-6-carbonitrile]
99% of control | > 1000 nM |  | C=CC(=O)N1CC(CN2C(=O)COc3cc(-c4cc(O)cc5ccccc45)c(C)cc32)C1 [Example 19, 4-((1-acryloylazetidin-3-yl)methyl)-7-(3-hydroxynaphthalen-1-yl)-6-methyl-2H-benzo[b][1,4]oxazin-3(4H)-one]
32% of control | > 1000 nM |  | C=CC(=O)N1CC(CN2C(=O)[C@H](CCN(C)C)Oc3cc(-c4cccc5ccccc45)c(Cl)cc32)C1 [Example 33, (S)-4-((1-acryloylazetidin-3-yl)methyl)-6-chloro-2-(2-(dimethylamino)ethyl)-7-(naphthalen-1-yl)-2H-benzo[b][1,4]oxazin-3(4H)-one]
91% of control | ≤ 1000 nM |  | C=CC(=O)N1CC(CN2C(=O)[C@@H](CCN(C)C)Oc3cc(-c4cc(O)cc5ccccc45)c(Cl)cc32)C1 [Example 18, (R)-4-((1-acryloylazetidin-3-yl)methyl)-6-chloro-2-(2-(dimethylamino)ethyl)-7-(3-hydroxynaphthalen-1-yl)-2H-benzo[b][1,4]oxazin-3(4H)-one]
94% of control | ≤ 1000 nM |  | C=CC(=O)N1CC(CN2C(=O)C(CN(C)C)Oc3cc(-c4cc(O)cc5ccccc45)c(Cl)cc32)C1 (stereo not shown) [Example 27, 4-((1-acryloylazetidin-3-yl)methyl)-6-chloro-2-((dimethylamino)methyl)-7-(3-hydroxynaphthalen-1-yl)-2H-benzo[b][1,4]oxazin-3(4H)-one]
86% of control | > 1000 nM |  | C=CC(=O)N1CC(CN2C(=O)C(CN3CCCC3)Oc3cc(-c4cccc5ccccc45)c(Cl)cc32)C1 (stereo not shown) [Example 24, 4-((1-acryloylazetidin-3-yl)methyl)-6-chloro-7-(naphthalen-1-yl)-2-(pyrrolidin-1-ylmethyl)-2H-benzo[b][1,4]oxazin-3(4H)-one 2,2,2-trifluoroacetate]
72% of control | > 1000 nM |  | C=CC(=O)N1CC(CN2C(=O)COc3cc(-c4[nH]nc(C)c4C)c(Cl)cc32)C1 [Example 38, 6-chloro-7-(3,4-dimethyl-1H-pyrazol-5-yl)-4-[(1-prop-2-enoylazetidin-3-yl)methyl]-1,4-benzoxazin-3-one]
90% of control | ≤ 1000 nM |  | C=CC(=O)N1CC(CN2C(=O)[C@H](CCN(C)C)Oc3cc(-c4cc(O)cc5ccccc45)c(Cl)cc32)C1 [Example 26, (S)-4-((1-acryloylazetidin-3-yl)methyl)-6-chloro-2-(2-(dimethylamino)ethyl)-7-(3-hydroxynaphthalen-1-yl)-2H-benzo[b][1,4]oxazin-3(4H)-one]
90% of control | > 1000 nM |  | C=CC(=O)N1CC(CN2C(=O)COc3cc(-c4cccc5ccccc45)c(Cl)cc32)C1 [Example 21, 4-((1-acryloylazetidin-3-yl)methyl)-6-chloro-7-(naphthalen-1-yl)-2H-benzo[b][1,4]oxazin-3(4H)-one]
